Data from patent US20230003721A1, “MITOTHERAPEUTICS FOR THE TREATMENT OF BRAIN DISORDERS” (The University of Florida Research Foundation, Inc., priority 2019, published 2023).
Counter-ions that a name gives are not always drawn.

Key:
[1] = test system: primary neurons; experiment: TMRM fluorescence assay of inner mitochondrial membrane potential (ΔΨm); settings: for Emax / EC50: Mus musculus, Primary neuron; for Emax: read-out: TMRM (Effect-size); for EC50: read-out: TMRM-EC50; for TMRM Primary: primary screen, 12.5 μM; for TMRM Primary / TMRM Rescreen: 24 h
[2] = test system: primary neurons; experiment: Mitochondrial morphology and neurite area after functional modulators; format: cell-based, mouse; parameters: key to Neurite Area: non-significant (n.s.); settings: for axonal mitochondrial circularity / neuritic area: after 48 h of treatment; for Mitochondrial Morphology / Neurite Area: significant change
Experimental: Mitochondrial morphology and neurite area measurements. Mitochondrial morphology and neurite area were quantified using methods described by Varkuti et al, 2020. Briefly, Cre-dependent mitochondrial targeted GFP2 (mito-GFP) ROSA26 knock-in mice were crossed with Ai14 (007908, The Jackson Laboratory) expressing cytosolic-tdTomato, and the forebrain of P0 pups were isolated and primary neurons were cultured as described above. AAV9 virus containing the iCRE sequence driven by the neuron specific CaMKII promoter was added to the cell culture at plating and 75% of the media replaced 4 h after plating. […] Z-projected images of the green channel were preprocessed (background subtraction: rolling ball, radius=3; median filtering: radius=1) and somatic mitochondria were removed (see details in Varkuti et al, Science Advances 6 (2020) eaaw8702). Red channel images were also preprocessed (tubeness filter, soma removal). Preprocessed images were segmented by GE Developer software (object-based, kernel size: 3). […] The length and circularity measurements for mitochondria were aggregated using the median and the area for neurites using the sum. After removing empty fields and outlier values from the fields, aggregated field values were averaged to well values (4 fields/well, 12 wells/compound). Robust Z-scores were calculated using DMSO-treated wells for each well ((mediancompound−medianDMSO)/median absolute deviationDMSO), well values were averaged for each compound.
A high-content assay was developed in parallel to monitor aspects of mitochondrial dynamics in primary cultured neurons that conditionally express (Cre recombinase dependent) mitochondrial-tagged GFP and cytosolic tdTomato reporters (Varkuti et al., 2020). We monitored two aspects of neuritic mitochondrial dynamics: (1) the health of mitochondria as measured by the average circularity of axonal mitochondria, since defective mitochondria targeted for mitophagy become circular in shape, and (2) the balance between fission/fusion measured by the average length of dendritic mitochondria. […] FIG. 19A illustrates the results of surveying a collection of functional modulators selected from 5 different structural clusters (FIG. 17), quantified as robust z-scores relative to DMSO-treated control neurons.

[3] = test system: primary neurons; experiment: CellTiter-Glo luminescence-based ATP assay; format: cell-based, mouse; settings: for ATP: ATP orthogonal screen, 24 h; for EC50 / Emax: Mus musculus, Primary neuron, dose response; for EC50: 15 concentrations from 6 nM to 100 uM; for Emax: maximal percent increase relative to in-plate DMSO controls, read-out: ATP (Effect-size)
Procedure, shortened: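 Primary neurons treated from DIV13 for 24 h with compound or DMSO. After part of the medium was removed, CellTiter-Glo reagent was added; plates were shaken 10 min at 200 rpm, kept 2 min in the dark at room temperature, and luminescence read as total ATP.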

| Compound | Emax [1] | EC50 [1] | TMRM Primary [1] | TMRM Rescreen [1] | axonal mitochondrial circularity [2] | neuritic area [2] | Mitochondrial Morphology [2] | Neurite Area [2] | ATP [3] | EC50 [3] | Emax [3] | ATP production in neurons ([3]; after 24 hr of treatment) |
| --- | --- | --- | --- | --- | --- | --- | --- | --- | --- | --- | --- | --- |
| COC(=O)[C@@H]1[C@H]2C[C@H]3c4[nH]c5ccccc5c4CCN3C[C@@H]2CC[C@@H]1O [YOHIMBINE HYDROCHLORIDE] | 18.6% | 620 nM | 2.70 Z-scores | 5.70 Z-scores | robust effects | increase | elongated | increased | 3.11 Z-scores | 270 nM | 23.6% | – |
| O=c1c(-c2ccc(O)cc2)coc2cc(O)cc(O)c12 [GENISTEIN] | 19.5% | 1300 nM | 3.38 Z-scores | 4.21 Z-scores | – | – | elongated | n.s. | 5.96 Z-scores | 3000 nM | 20.6% | – |
| CCCCOc1ccc(C(=O)CCN2CCCCC2)cc1 [DYCLONINE HYDROCHLORIDE] | 22% | 750 nM | 3.64 Z-scores | 6.30 Z-scores | robust effects | increase | elongated | increased | 7.04 Z-scores | 140 nM | 20.7% | increased |
